The source of these data is ChEMBL document CHEMBL1144506, “Fujita-Ban QSAR analysis and CoMFA study of quinoline antagonists of immunostimulatory CpG-oligodeoxynucleotides” (Bioorg Med Chem, 2007).

This test has as its system WEHI. Put plainly: Inhibition of CpG-oligodeoxynucleotides-induced immunostimulation in mouse WEHI 231 cells. The class given is functional, cell-based. Particulars: Mus musculus, WEHI.

What is called EC50 is the concentration at which the effect is half-maximal. Read a high EC50 as weaker potency. The molecule `CN(C)CCCNc1cc(-c2ccc(N3CCCCC3)cc2)nc2ccccc12` gave an EC50 of 15.8 nM.

`CN(C)CCCCNc1cc(-c2ccc(N3CCN(C)CC3)cc2)nc2ccccc12` showed an EC50 of 1.23 nM. Regarding `CN1CCN(c2ccccc2-c2cc(N3CCN(C)CC3)c3ccccc3n2)CC1`, a half-maximal effect (EC50) was put at 132 nM.

The molecule `CN1CCN(c2ccc(-c3cc(NCCC4CCCN4C)c4ccccc4n3)cc2)CC1` (stereo not given) had an EC50 of 2 nM. In turn, `Cc1cccc(-c2cc(NCCN(C)C)c3ccccc3n2)c1` showed an EC50 of 72.4 nM.
